Calls of active or inactive are those of the source.
Tests used:
[1] = IGROV1 cell killing – plate reader, dry powder samples, PAX8 inhibitor project, dose response (AID 743043); type: functional, cell-based; conditions: IGROV-1
Paired box protein Pax-8 = Paired box protein Pax-8 (Homo sapiens, UniProt Q06710); assay: PAX8 transcriptional activity inhibition in RMG-I – RMG-I cells, luciferase, cherry-pick, dose response (AID 687027); type: functional, cell-based;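 further: luciferase reporter driven by Pax8 target thyroperoxidase promoter measured by SteadyGlo luminescence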
Chain of Paired box protein Pax-8 (Q06710 whole entry): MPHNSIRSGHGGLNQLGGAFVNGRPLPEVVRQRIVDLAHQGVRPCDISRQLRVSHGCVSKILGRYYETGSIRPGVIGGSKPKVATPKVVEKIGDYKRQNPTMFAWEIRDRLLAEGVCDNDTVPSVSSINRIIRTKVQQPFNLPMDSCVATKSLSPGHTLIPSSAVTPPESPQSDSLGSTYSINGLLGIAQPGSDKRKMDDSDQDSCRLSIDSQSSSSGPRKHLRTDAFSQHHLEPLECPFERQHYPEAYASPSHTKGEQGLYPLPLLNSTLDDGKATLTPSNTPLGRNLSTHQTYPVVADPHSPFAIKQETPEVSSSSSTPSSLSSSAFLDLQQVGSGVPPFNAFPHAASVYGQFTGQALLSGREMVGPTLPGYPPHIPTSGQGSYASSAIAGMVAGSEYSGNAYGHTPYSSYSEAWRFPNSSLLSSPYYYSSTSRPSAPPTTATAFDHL

[2] = general cell-killing toxicity readout – plate reader, dry powder samples, cytotoxicity control for PAX8 inhibitor project, dose response (AID 743021); type: functional, cell-based
[3] = OVCAR8 cell viability loss – plate reader, dry powder samples, PAX8 project, dose response (AID 743197); type: functional, cell-based; conditions: OVCAR-8
[4] = OVCAR-3 cell viability loss – plate reader, dry powder samples, PAX8 inhibitor project, dose response (AID 743044); type: functional, cell-based
[5] = HEK293 Cytotoxicity Assay Measured in Cell-Based System Using Plate Reader - 7071-01_Inhibitor_Dose_CherryPick_Activity_Set2.; type: functional
HEK293 = assay: viability loss in HEK293T cells – cell-based, ATP luminescence, cherry-pick samples, cytotoxicity control, dose response (AID 687005); type: functional; conditions: Homo sapiens;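 further: cells exposed to compound for 48 hours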
HeLa = assay: viability loss in HeLa cells – cell-based, ATP luminescence, cherry-pick samples, cytotoxicity control, dose response (AID 687004); type: functional; conditions: Homo sapiens
Caspase-3 = molecular target: T1, Caspase-3 (Homo sapiens, UniProt P42574); type: functional;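 further: Dose-response selectivity test against caspase-3 for candidate inhibitors of sentrin-specific proteases (SENPs)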
T1 sequence (P42574 whole entry): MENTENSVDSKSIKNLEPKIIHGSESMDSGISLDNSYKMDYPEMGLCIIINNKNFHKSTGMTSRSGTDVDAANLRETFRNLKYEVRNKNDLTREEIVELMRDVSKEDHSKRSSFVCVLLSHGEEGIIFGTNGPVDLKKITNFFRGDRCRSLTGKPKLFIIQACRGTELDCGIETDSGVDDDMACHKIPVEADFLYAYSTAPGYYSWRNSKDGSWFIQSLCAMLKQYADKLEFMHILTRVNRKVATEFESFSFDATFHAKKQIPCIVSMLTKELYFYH

[6] = molecular target: T2, Sentrin-specific protease 7 (Homo sapiens, UniProt Q9BQF6); type: functional;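 further: Luminescence-based dose-response confirmation of ultra-high-throughput screening hits, measuring inhibition of SENP7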
T2 sequence (Q9BQF6 whole entry): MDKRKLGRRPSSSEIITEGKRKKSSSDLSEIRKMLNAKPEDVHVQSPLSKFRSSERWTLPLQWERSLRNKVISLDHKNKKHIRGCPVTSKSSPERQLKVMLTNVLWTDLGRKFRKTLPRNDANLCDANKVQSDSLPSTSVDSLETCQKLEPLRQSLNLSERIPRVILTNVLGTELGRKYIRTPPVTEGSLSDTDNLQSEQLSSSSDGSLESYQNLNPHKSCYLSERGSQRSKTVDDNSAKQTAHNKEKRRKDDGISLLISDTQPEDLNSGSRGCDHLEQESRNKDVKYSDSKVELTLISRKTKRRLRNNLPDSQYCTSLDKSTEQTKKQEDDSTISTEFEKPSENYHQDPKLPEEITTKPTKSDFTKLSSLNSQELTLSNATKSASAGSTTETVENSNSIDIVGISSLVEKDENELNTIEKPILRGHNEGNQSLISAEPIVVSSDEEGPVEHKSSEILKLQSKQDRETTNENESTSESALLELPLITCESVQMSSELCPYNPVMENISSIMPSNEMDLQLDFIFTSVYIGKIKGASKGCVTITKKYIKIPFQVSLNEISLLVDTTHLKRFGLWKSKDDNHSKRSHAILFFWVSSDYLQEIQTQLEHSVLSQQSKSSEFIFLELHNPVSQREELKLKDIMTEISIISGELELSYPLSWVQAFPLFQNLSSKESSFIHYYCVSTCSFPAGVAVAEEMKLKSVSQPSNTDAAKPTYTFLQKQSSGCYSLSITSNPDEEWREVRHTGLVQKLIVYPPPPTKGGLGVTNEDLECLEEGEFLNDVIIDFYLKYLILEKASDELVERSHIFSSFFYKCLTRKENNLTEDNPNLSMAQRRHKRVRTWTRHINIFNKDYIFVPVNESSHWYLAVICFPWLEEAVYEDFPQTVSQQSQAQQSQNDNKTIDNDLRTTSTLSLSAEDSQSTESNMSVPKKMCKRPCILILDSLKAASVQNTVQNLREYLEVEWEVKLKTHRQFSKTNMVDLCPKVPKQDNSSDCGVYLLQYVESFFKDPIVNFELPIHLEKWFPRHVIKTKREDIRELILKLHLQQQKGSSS

[7] = molecular target: T3, Oxysterols receptor LXR-beta (Homo sapiens, UniProt P55055); type: functional, cell-based;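 further: agonist activity at LXR measured by a cell-based luminescence readout across a dose range, run as a counterscreen for daf-12 agonists; HEK293 cells with Gal4-LXR fusion and GAL4-driven luciferase reporter; potency for activation of Gal4-LXR reporter so compounds are agonists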
T3 sequence (P55055 whole entry): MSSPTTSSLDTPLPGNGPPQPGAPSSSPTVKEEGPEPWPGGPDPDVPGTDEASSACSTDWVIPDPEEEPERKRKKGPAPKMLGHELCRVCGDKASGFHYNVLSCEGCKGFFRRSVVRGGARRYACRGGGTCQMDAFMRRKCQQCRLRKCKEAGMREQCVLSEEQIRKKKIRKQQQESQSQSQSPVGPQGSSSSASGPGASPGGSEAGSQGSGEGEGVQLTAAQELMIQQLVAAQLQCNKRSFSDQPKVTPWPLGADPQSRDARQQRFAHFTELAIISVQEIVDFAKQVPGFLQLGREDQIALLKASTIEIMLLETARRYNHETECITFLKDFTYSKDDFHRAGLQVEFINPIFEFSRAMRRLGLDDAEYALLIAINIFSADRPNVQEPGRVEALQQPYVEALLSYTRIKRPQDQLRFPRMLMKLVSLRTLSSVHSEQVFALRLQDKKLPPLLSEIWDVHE

Streptococcus = assay: GAS UMAA2166 growth inhibition – luminescence, BacTiterGlo, counter-screen for streptokinase expression inhibitor project, dose response (AID 1915); type: functional, organism-based;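 further: potency for reduction of bacterial viability or growth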
[8] = molecular target: T4, Sentrin-specific protease 8 (Homo sapiens, UniProt Q96LD8); type: functional;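 further: luminescence read-out of SENP8 inhibition, dose-response confirmation following an ultra-high-throughput screen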
T4 sequence (Q96LD8 whole entry): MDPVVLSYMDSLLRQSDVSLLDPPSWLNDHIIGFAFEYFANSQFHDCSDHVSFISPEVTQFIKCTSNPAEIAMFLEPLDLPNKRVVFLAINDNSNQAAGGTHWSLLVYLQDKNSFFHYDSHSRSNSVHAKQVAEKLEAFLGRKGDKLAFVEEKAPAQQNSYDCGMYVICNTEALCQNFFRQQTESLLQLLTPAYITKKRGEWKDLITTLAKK

[9] = tested on: Streptococcus sp. 'group A'; assay: Streptococcus pyogenes SK(-)GAS viability under kanamycin – luminescence, BacTiterGlo, confirmation, counter-screen for streptokinase expression inhibitor project, dose response (AID 1900); type: functional, organism-based
Streptokinase A = molecular target: T5, Streptokinase A (Streptococcus pyogenes serotype M1, UniProt P10520); assay: viability-normalized secreted streptokinase activity reduction – plasminogen activation absorbance, OD405, dose response (AID 1914); type: functional, Streptococcus pyogenes M1 GAS;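 further: secreted streptokinase activity via plasminogen activation per viability signal from cell pellet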
T5 sequence (P10520 whole entry): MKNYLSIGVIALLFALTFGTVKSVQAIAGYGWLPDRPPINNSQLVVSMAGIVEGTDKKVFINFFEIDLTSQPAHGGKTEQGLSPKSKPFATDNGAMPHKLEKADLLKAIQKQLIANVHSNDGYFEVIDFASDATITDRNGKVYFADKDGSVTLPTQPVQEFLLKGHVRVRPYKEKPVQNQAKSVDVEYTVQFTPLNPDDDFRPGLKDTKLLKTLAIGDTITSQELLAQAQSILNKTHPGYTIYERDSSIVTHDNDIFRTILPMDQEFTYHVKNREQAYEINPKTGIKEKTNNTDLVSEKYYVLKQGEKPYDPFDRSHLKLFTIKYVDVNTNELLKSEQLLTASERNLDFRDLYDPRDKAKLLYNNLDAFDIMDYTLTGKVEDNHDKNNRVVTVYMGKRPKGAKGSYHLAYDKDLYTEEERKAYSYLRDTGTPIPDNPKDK

[10] = molecular target: T6, Sentrin-specific protease 6 (Homo sapiens, UniProt Q9GZR1); type: functional;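 further: Luminescence-based dose-response confirmatory assay of SENP6 inhibition, following up an ultra-high-throughput screen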
T6 sequence (Q9GZR1 whole entry): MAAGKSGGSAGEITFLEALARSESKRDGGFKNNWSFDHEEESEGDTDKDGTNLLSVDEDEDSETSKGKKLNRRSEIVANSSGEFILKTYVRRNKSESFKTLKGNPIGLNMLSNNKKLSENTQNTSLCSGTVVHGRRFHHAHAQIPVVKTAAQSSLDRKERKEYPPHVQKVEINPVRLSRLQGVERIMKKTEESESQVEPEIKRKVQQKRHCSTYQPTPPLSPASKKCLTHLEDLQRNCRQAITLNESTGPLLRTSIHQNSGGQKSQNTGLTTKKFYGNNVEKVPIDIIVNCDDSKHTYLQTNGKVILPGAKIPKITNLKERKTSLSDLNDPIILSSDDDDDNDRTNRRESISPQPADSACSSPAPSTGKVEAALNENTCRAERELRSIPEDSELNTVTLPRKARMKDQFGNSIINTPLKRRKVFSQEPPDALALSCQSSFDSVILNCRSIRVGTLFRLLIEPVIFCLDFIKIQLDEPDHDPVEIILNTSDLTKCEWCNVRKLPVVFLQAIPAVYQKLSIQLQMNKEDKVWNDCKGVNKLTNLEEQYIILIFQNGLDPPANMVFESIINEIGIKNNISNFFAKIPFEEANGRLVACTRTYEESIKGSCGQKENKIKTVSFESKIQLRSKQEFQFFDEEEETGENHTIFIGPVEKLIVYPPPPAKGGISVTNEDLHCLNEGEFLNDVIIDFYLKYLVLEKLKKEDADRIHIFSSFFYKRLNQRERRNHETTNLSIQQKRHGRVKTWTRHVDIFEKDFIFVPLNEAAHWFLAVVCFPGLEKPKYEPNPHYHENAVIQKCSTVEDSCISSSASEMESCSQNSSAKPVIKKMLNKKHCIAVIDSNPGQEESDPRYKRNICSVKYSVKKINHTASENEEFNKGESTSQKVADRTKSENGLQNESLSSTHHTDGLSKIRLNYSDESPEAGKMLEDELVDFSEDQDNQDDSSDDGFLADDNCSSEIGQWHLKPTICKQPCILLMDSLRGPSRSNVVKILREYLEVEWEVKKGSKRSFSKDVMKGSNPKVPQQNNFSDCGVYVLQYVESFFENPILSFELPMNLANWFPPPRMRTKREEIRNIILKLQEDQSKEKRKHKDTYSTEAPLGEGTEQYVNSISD

Which results are given for `C[C@@H]1CCCCO[C@H](CN(C)Cc2ccc(C(F)(F)F)cc2)[C@@H](C)CN([C@@H](C)CO)C(=O)c2cc(NC(=O)c3ccccc3)ccc2O1`?
AC50 [1]: 26.2 µM (active); AC50 (Paired box protein Pax-8): 6.57 µM (active); AC50 [2]: 52.2 µM (active); AC50 [3]: 21.5 µM (active); AC50 [4]: 10.8 µM (active)

Which results are given for `COc1cccc(S(=O)(=O)Nc2ccc3c(c2)[C@@H]2C[C@@H](CC(=O)NCc4cccc(F)c4)O[C@H](CO)[C@@H]2O3)c1`?
AC50 [5]: 27.7 µM (active); AC50 (HEK293): 27.7 µM (active)

Which AC50 [5] does the source give for `C[C@@H]1CN([C@H](C)CO)S(=O)(=O)c2ccc(C#Cc3ccc(F)cc3)cc2O[C@H]1CN(C)C(=O)NC1CCCC1` here?
Its AC50 is 4.91 µM (active).

And the AC50 (HeLa)?
The AC50 was 34.7 µM (active).

What about the AC50 (HEK293) of the same compound?
The AC50 was 4.91 µM (active).

For `O=c1c2cc(-c3ccccc3)sc2nc2n1CCC2`, which IC50 (Caspase-3) is on record?
The IC50 was 5.94 µM (active).

What about the IC50 [6] of the same compound?
Its IC50 is 6.17 µM (active).

And the EC50 [7]?
The EC50 was > 67.5 µM (inactive).

What about the EC50 (Streptococcus) of the same compound?
The EC50 was > 150 µM (not active).

And the IC50 [8]?
Its IC50 is 10.9 µM (active).

And the EC50 [9]?
Its EC50 is 11.3 µM (active).

And the EC50 (Streptokinase A)?
Its EC50 is > 150 µM (not active).

And the IC50 [10]?
Its IC50 is 20.8 µM (active).

Source: ChEMBL document CHEMBL1201862, “PubChem BioAssay data set” (2004)
